In brackets after ≈: the same amount, converted by molar mass. Where two headings read alike, the source gives them in different places.
Columns and labels:
[1] = tested on: Caco-2 colon cancer cells; assay: Soft agar assay for colony formation (clonogenic assay); format: cell-based, human; settings: compound in top soft agar; for Cytotoxic properties (IC 90) Caco-2: colony formation on soft agar; for IC90: Homo sapiens, Caco-2, colony formation on soft agar, read-out: Cytotoxic properties (IC 90) Caco-2
Excerpt: (§1) The bioactivity testing was done at two stages.

[2] = tested on: MCF-7 breast cancer cells; assay: as above; format: cell-based, human; settings: compound in top soft agar; for Cytotoxic properties (IC 90) MCF-7: colony formation on soft agar; for IC90: Homo sapiens, MCF7, colony formation on soft agar, read-out: Cytotoxic properties (IC 90) MCF-7
Excerpt: as §1

PA-1 ovary cancer cells [3] = assay: as above; format: cell-based, human; settings: colony formation on soft agar, compound in top soft agar; for IC90: Homo sapiens, read-out: Cytotoxic properties (IC 90) PA-1
Excerpt: as §1

[4] = tested on: KB-403 mouth cancer cells
Protocol: (§2) As a part of the studies on the isolation of anticancer compounds a number of taxanes were isolated from the needles of the plant Taxus wallichiana and tested for their anti-cancer properties against six human cancer cell lines in-vitro. The bioactivity testing was done at two stages. In the initial step, MTT assay was performed from which the inhibitory concentration (IC90) the concentration (μg/mL) of the taxanes required for 90% inhibition of cell growth was deduced. […] The MTT assay cannot discriminate between growth inhibition and cell death; it is an overall measurement of cell proliferation (Woerdenbag et al., 1993; J.Nat.Prod. 56 (6): 849–856). Therefore the IC90 data obtained by the MTT assay may overestimate the cell killing activity of a compound. […] Persons skilled in the art of anti-cancer drug discovery can perform both these assays.
(§3) The following six human cancer lines were procured from the Cell Repository of the National Center for Cell Sciences (NCSS) at Pune. Their corresponding ATCC No. and the organ from which they were isolated are also mentioned in Table 1 below:
(§4) Cytotoxicity testing in vitro was done by the method of Woerdenbag et al.,1993; J.Nat.Prod. 56 (6): 849–856). 2×10^3 cells/well were incubated in the 5% CO2 incubator for 24 h to enable them to adhere properly to the 96 well polysterene microplate (Grenier, Germany). Test compounds dissolved in 100% DMSO (Merck,Germany) in at least five doses were added and left for 6 h after which the compound plus media was replaced with fresh media and the cells were incubated for another 48 h in the CO2 incubator at 37° C. […] Then, 10 μl MTT [3-(4,5-dimethylthiazol-2-yl)-2,5-diphenyltetrazolium bromide; Sigma M 2128] was added, and plates were incubated at 37° C. for 4 h. 100 μl dimethyl sulfoxide (DMSO, Merck, Germany) were added to all wells and mixed thoroughly to dissolve the dark blue crystals. After a few minutes at room temperature to ensure that all crystals were dissolved, the plates were read on a SpectraMax 190 Microplate Elisa reader (Molecular Devices Inc., USA), at 570 nm. Plates were normally read within 1 h of adding the DMSO. The experiment was done in triplicate and the inhibitory concentration (IC) values were calculated as follows: % inhibition=[1-OD (570 nm) of sample well/OD (570 nm) of control well]×100. IC90 is the concentration μg/mL required for 90% inhibition of cell growth as compared to that of untreated control.

[5] = tested on: Caco-2 colon cancer cells; assay: In-vitro anticancer MTT assay; format: cell-based, human; settings: for IC90: Homo sapiens
Excerpt: as §1

[6] = tested on: MCF-7 breast cancer cells; assay: In-vitro anticancer MTT assay; format: cell-based, human; settings: for IC90: Homo sapiens, MCF7, read-out: Cytotoxic properties (IC 90) MCF-7
Excerpt: as §1

PA-1 ovary cancer cells [7] = assay: In-vitro anticancer MTT assay; format: cell-based, human; settings: for Cytotoxic properties (IC 90) PA-1 / IC90: MTT assay, 6 h exposure, then 48 h in fresh media, 90% inhibition of cell growth; for IC90: Homo sapiens, read-out: Cytotoxic properties (IC 90) PA-1
Excerpt: as §1

[8] = tested on: KB-403 mouth cancer cells; remark: listed apart in the source
Protocol: as §2
(§5) The clonogenic assay for tumor cells which determines the actual cell death was performed to determine the cytotoxic potential of test compounds. The principle of clonogenic assay is to investigate the ability of an individual cell to form a colony on a soft agar plate containing various concentrations of test compounds.
(§6) Cells not able to form colonies are considered clonogenically dead (Beekman et al 1997; J.Nat.Prod. 60(4): 325–330). The concentration of test compound resulting in […] was denoted as IC90 and was used as a parameter for cytotoxicity. The assay was performed as described previously except that the test compounds were added into the top soft agar and the cells were plated out to form colonies. Anthracycline derivative doxorubicin and microtubule depolymerization inhibitor paclitaxel (Sigma Chem. Co., St. Loius, USA) both established anticancer agents were included as standard reference drugs.

[9] = tested on: WRL-68 liver cancer cells; assay: Soft agar assay for colony formation (clonogenic assay); settings: for IC90: Homo sapiens, WRL68, read-out: Cytotoxic properties (IC 90) WRL-68
Protocol: as §2, §5, §6

[10] = tested on: WRL-68 liver cancer cells; assay: In-vitro anticancer MTT assay; settings: for IC90: Homo sapiens, WRL68, read-out: Cytotoxic properties (IC 90) WRL-68
Protocol: as §2, §3, §4

[11] = tested on: COLO-320DM colon cancer cells; assay: In-vitro anticancer MTT assay; format: cell-based, human; settings: 6 h exposure, then 48 h in fresh media, 90% inhibition of cell growth; for IC90: Homo sapiens, COLO 320DM, read-out: Cytotoxic properties (IC 90) COLO-320 DM
Excerpt: as §1

[12] = tested on: COLO-320DM colon cancer cells; assay: Soft agar assay for colony formation (clonogenic assay); format: cell-based, human; settings: colony formation on soft agar, compound in top soft agar; for IC90: Homo sapiens, COLO 320DM, read-out: Cytotoxic properties (IC 90) COLO-320 DM
Excerpt: as §1

[13] = MTT assay, 6 h exposure, then 48 h in fresh media, 90% inhibition of cell growth
[14] = clonogenic assay, colony formation on soft agar, compound in top soft agar
[15] = Caco-2, MTT assay, 6 h exposure, then 48 h in fresh media, 90% inhibition of cell growth, read-out: Cytotoxic properties (IC 90) Caco-2

2′-Deacetoxy austrospicatin
Cytotoxic properties (IC 90) Caco-2 [1]: 3.16 µg/mL | Cytotoxic properties (IC 90) MCF-7 [2]: 5.63 µg/mL | Cytotoxic properties (IC 90) PA-1 (PA-1 ovary cancer cells [3]): 6.3 µg/mL | Cytotoxic properties (IC 90) KB-403 [4, 13]: 4.5 µg/mL | Cytotoxic properties (IC 90) Caco-2 [5, 13]: 1.0 µg/mL | Cytotoxic properties (IC 90) MCF-7 [6, 13]: 3.5 µg/mL | Cytotoxic properties (IC 90) PA-1 (PA-1 ovary cancer cells [7]): 4.0 µg/mL | Cytotoxic properties (IC 90) KB-403 [8, 14]: 0.44 µg/mL

C=C1[C@H]2C[C@@H]3C[C@H](OC(C)=O)C(C)=C([C@@H](OC(C)=O)[C@H](OC(C)=O)[C@]2(C)[C@@H](OC(C)=O)C[C@@H]1O)C3(C)C [2-deacetoxy decinnamoyl taxinine J]
Cytotoxic properties (IC 90) Caco-2 [1]: 31.82 µg/mL | Cytotoxic properties (IC 90) PA-1 (PA-1 ovary cancer cells [3]): 15.84 µg/mL | Cytotoxic properties (IC 90) WRL-68 [9, 14]: 12.58 µg/mL | Cytotoxic properties (IC 90) KB-403 [4, 13]: 0.01 µg/mL | Cytotoxic properties (IC 90) WRL-68 [10, 13]: 0.5 µg/mL | Cytotoxic properties (IC 90) Caco-2 [5, 13]: 6.4 µg/mL | Cytotoxic properties (IC 90) COLO-320 DM [11]: >10.0 µg/mL | Cytotoxic properties (IC 90) PA-1 (PA-1 ovary cancer cells [7]): 10.0 µg/mL | Cytotoxic properties (IC 90) KB-403 [8, 14]: 0.11 µg/mL

C=C1[C@@H](OC(=O)/C=C/c2ccccc2)C[C@H](OC(C)=O)[C@]2(C)[C@@H]1C[C@@H]1C[C@H](OC(C)=O)C(C)=C([C@@H](OC(C)=O)[C@@H]2OC(C)=O)C1(C)C [2-deacetoxy taxinine J]
Cytotoxic properties (IC 90) Caco-2 [1]: 0.25 µg/mL | Cytotoxic properties (IC 90) COLO-320 DM [12]: 10.0 µg/mL | Cytotoxic properties (IC 90) MCF-7 [2]: 7.94 µg/mL | Cytotoxic properties (IC 90) KB-403 [4, 13]: 3.5 µg/mL | Cytotoxic properties (IC 90) Caco-2 [5, 13]: 0.009 µg/mL | Cytotoxic properties (IC 90) COLO-320 DM [11]: 1.0 µg/mL | Cytotoxic properties (IC 90) MCF-7 [6, 13]: 6.5 µg/mL | Cytotoxic properties (IC 90) KB-403 [8, 14]: 28.18 µg/mL

CC(=O)O[C@H]1C[C@H]2OC[C@@]2(OC(C)=O)[C@H]2[C@H](OC(C)=O)[C@]3(C(C)(C)O)C[C@H](O)C(C)=C3[C@@H](O)[C@H](OC(C)=O)[C@]12C [10,13,deacetyl abeobaccatin IV]
Cytotoxic properties (IC 90) KB-403 [4, 13]: >10.0 µg/mL | Cytotoxic properties (IC 90) MCF-7 [6]: >10.0 µg/mL

C=C1C2C[C@]3(C(C)(C)O)CC(O)C(C)=C3[C@@H](OC(=O)c3ccccc3)[C@H](OC(C)=O)[C@]2(C)[C@@H](OC(C)=O)C[C@@H]1O (some centres unmarked) [Brevifoliol, brevifoliol]
IC90 [1]: 0.31 µg/mL (≈ 0.557 µM) | IC90 [12]: 1 µg/mL (≈ 1.8 µM) | IC90 [2]: 1.99 µg/mL (≈ 3.57 µM) | IC90 (PA-1 ovary cancer cells [3]): 7.94 µg/mL (≈ 14.3 µM) | IC90 [9]: 15.8 µg/mL (≈ 28.5 µM) | Cytotoxic properties (IC 90) KB-403 [4, 13]: 0.035 µg/mL | activity against KB-403 cancer cells, in words ([4]; summary of the bioassay data): highly inhibitory | IC90 [10]: > 10 µg/mL | activity against WRL-68 liver cancer cells, in words ([10]; summary of Table 2): active against all cancer cell lines except liver cancer (WRL-68) | IC90 ([5]; Caco-2, read-out: Cytotoxic properties (IC 90) Caco-2): 0.85 µg/mL (≈ 1.53 µM) | activity against Caco-2 cancer cells, in words ([5]; summary of the bioassay data): highly inhibitory | IC90 [11]: 0.1 µg/mL (≈ 0.18 µM) | IC90 [6, 13]: 0.004 µg/mL (≈ 0.00719 µM) | activity against MCF-7 cancer cells, in words ([6]; summary of the bioassay data): highly inhibitory | IC90 (PA-1 ovary cancer cells [7]): 6 µg/mL (≈ 10.8 µM) | activity against PA-1 cancer cells, in words (PA-1 ovary cancer cells [7]; summary of the bioassay data): highly inhibitory | Cytotoxic properties (IC 90) KB-403 [8, 14]: 0.398 µg/mL

COc1cccc2c1C(=O)c1c(O)c3c(c(O)c1C2=O)C[C@@](O)(C(=O)CO)C[C@@H]3O[C@H]1C[C@H](N)[C@H](O)[C@H](C)O1 [Doxorubicin (Std), doxorubicin, reference compound]
IC90 [1]: 0.079 µg/mL (≈ 0.145 µM) | IC90 [12]: 0.1 µg/mL (≈ 0.184 µM) | IC90 [2]: 0.8 µg/mL (≈ 1.47 µM) | IC90 (PA-1 ovary cancer cells [3]): 10 µg/mL (≈ 18.4 µM) | IC90 [9]: 3.98 µg/mL (≈ 7.32 µM) | Cytotoxic properties (IC 90) KB-403 [4]: 0.06 µg/mL | IC90 [10]: 1 µg/mL (≈ 1.84 µM) | IC90 [5, 15]: 0.052 µg/mL (≈ 0.0957 µM) | IC90 [11]: 0.08 µg/mL (≈ 0.147 µM) | IC90 [6, 13]: 0.01 µg/mL (≈ 0.0184 µM) | IC90 (PA-1 ovary cancer cells [7]): 0.5 µg/mL (≈ 0.92 µM)

CC(=O)O[C@H]1C(=O)[C@@]2(C)[C@H]([C@H](OC(=O)c3ccccc3)[C@]3(O)C[C@H](OC(=O)[C@H](O)[C@@H](NC(=O)c4ccccc4)c4ccccc4)C(C)=C1C3(C)C)[C@]1(OC(C)=O)CO[C@@H]1C[C@@H]2O [Taxol (Std), taxol, reference compound]
IC90 [1]: 1.99 µg/mL (≈ 2.33 µM) | IC90 [12]: 0.8 µg/mL (≈ 0.937 µM) | IC90 [2]: 1.99 µg/mL (≈ 2.33 µM) | IC90 (PA-1 ovary cancer cells [3]): 1.47 µg/mL (≈ 1.72 µM) | IC90 [9]: 6.3 µg/mL (≈ 7.38 µM) | Cytotoxic properties (IC 90) KB-403 [4]: 0.047 µg/mL | IC90 [10]: 2.5 µg/mL (≈ 2.93 µM) | IC90 [5, 15]: 0.065 µg/mL (≈ 0.0761 µM) | IC90 [11]: 0.01 µg/mL (≈ 0.0117 µM) | IC90 [6, 13]: 0.85 µg/mL (≈ 0.995 µM) | IC90 (PA-1 ovary cancer cells [7]): 0.9 µg/mL (≈ 1.05 µM) | Cytotoxic properties (IC 90) KB-403 [8]: 7.94 µg/mL

Acetoxy brevifoliol
Cytotoxic properties (IC 90) WRL-68 [9]: 7.0 µg/mL | Cytotoxic properties (IC 90) KB-403 [4]: 10.0 µg/mL | Cytotoxic properties (IC 90) WRL-68 [10]: 5.0 µg/mL | Cytotoxic properties (IC 90) KB-403 [8]: 1.0 µg/mL

Source: patent US7196115B2, “Pharmaceutical composition containing brevifoliol for use in chemotherapeutic treatment of human beings, method therefor” (Council of Scientific and Industrial Research, priority 2002, dated 2007)
